Results on five molecules are retold here after ChEMBL document CHEMBL1806432, “Cytotoxic diterpenoid quinonemethides from the roots of Pygmacopremna herbacea” (Bioorg Med Chem Lett, 2011).

Common to all, as to format: functional, cell-based
One test has as its system MCF7. The experiment in a line: Cytotoxicity against human MCF7 cells after 48 hrs by MTT assay. To be noted: MCF7, 48 h.
The test system of the next test is A549. The experiment in a line: Cytotoxicity against human A549 cells after 48 hrs by MTT assay. To be noted: A549, 48 h. For orientation: Tetrazolium dyes change colour on reduction, which living cells bring about.
A further test has as its system HepG2. The experiment in a line: Cytotoxicity against human HepG2 cells after 48 hrs by MTT assay. To be noted: HepG2, 48 h.
The subject of a further test is PC-3. The experiment in a line: Cytotoxicity against human PC3 cells after 48 hrs by MTT assay. To be noted: PC-3, 48 h.
A further test relates to HeLa. The experiment in a line: Cytotoxicity against human HeLa cells after 48 hrs by MTT assay.

≈ marks a conversion by molar mass, not a printed value.

The term IC50 denotes the midpoint of a concentration-inhibition curve. Low readings indicate higher potency, high ones lower potency.

As to `CC(C)C1=CC2=CC=C3C(C)(C)CC(=O)C[C@@]3(C)C2=C(O)C1=O`, the IC50 with MCF7 stood at 27.6 µg/mL (≈ 88.3 µM); with A549 it was 17.6 µg/mL (≈ 56.3 µM); with HepG2, 38.2 µg/mL (≈ 122 µM); with PC-3 it was 1.7 µg/mL (≈ 5.44 µM); with HeLa, 15.6 µg/mL (≈ 49.9 µM).

For the molecule `CC(C)C1=CC2=CC=C3C(C)(C)CC(=O)O[C@@]3(C)CC2=C(O)C1=O` [BHARANGIN], the IC50 with MCF7 is 0.006 µg/mL (≈ 0.0183 µM); in the test on A549, 2.03 µg/mL (≈ 6.18 µM); in the test with HepG2, 14.3 µg/mL (≈ 43.5 µM); with PC-3, 2.95 µg/mL (≈ 8.98 µM); in the test with HeLa it was 14.1 µg/mL (≈ 42.9 µM).

For `COc1cccc2c1C(=O)c1c(O)c3c(c(O)c1C2=O)C[C@@](O)(C(=O)CO)C[C@@H]3O[C@H]1C[C@H](N)[C@H](O)[C@H](C)O1` [DOXORUBICIN], the concentration for half-maximal inhibition (IC50) in the test with A549 stood at 0.51 µg/mL (≈ 0.938 µM); with HepG2 it was 1.6 µg/mL (≈ 2.94 µM); in the test with PC-3, 2.3 µg/mL (≈ 4.23 µM); in the test with HeLa, 0.24 µg/mL (≈ 0.442 µM).

Regarding `CC(C)C1=CC2=CC=C3C(C)(C)[C@@H](O)C(=O)C[C@]3(C)C2=C(O)C1=O` [ISOBHARANGIN], the IC50 turned out to be 28.2 µg/mL (≈ 85.9 µM) in the test with MCF7; 24.1 µg/mL (≈ 73.4 µM) in the test with A549; 6.29 µg/mL (≈ 19.2 µM) in the test on HepG2; 62.2 µg/mL (≈ 189 µM) in the test with PC-3; 103 µg/mL (≈ 315 µM) with HeLa.

Turning to `CC(C)C1=CC2=CC=C3C(C)(C)COC(=O)[C@@]3(C)CC2=C(O)C1=O` [NEOBHARANGIN], the 50% inhibitory concentration (IC50) in the test with MCF7 amounted to 0.39 µg/mL (≈ 1.19 µM); in the test with A549, 2.61 µg/mL (≈ 7.95 µM); with HepG2, 13 µg/mL (≈ 39.6 µM); in the test with PC-3, 48.6 µg/mL (≈ 148 µM); in the test on HeLa, 104 µg/mL (≈ 318 µM).
